The values that follow come from ChEMBL document CHEMBL4507291 (2021).

The target in assay [1] is Cyclin-dependent kinase 3 (Homo sapiens) (UniProt Q00526).
Assay [2] addresses T1, 5-hydroxytryptamine receptor 3A (Homo sapiens) (UniProt P46098).
T1 sequence (whole entry): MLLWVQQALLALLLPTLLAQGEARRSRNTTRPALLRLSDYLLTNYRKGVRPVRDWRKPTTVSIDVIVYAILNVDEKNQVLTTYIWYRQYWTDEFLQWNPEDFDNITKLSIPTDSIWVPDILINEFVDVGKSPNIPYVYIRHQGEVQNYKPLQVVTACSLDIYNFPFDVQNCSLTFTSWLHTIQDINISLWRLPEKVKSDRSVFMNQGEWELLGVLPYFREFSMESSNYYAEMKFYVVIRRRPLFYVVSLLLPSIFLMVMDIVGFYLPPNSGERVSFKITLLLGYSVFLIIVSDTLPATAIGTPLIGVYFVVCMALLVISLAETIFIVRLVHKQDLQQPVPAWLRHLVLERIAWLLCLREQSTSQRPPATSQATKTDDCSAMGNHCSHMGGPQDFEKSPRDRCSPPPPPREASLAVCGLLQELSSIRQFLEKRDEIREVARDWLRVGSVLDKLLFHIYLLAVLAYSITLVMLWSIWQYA
The note with it: Compound concentration 10.0 uM.

The target of assay [3] is Activin receptor type-2B (Homo sapiens) (UniProt Q13705).
Chain of Activin receptor type-2B (Homo sapiens) (Q13705 whole entry): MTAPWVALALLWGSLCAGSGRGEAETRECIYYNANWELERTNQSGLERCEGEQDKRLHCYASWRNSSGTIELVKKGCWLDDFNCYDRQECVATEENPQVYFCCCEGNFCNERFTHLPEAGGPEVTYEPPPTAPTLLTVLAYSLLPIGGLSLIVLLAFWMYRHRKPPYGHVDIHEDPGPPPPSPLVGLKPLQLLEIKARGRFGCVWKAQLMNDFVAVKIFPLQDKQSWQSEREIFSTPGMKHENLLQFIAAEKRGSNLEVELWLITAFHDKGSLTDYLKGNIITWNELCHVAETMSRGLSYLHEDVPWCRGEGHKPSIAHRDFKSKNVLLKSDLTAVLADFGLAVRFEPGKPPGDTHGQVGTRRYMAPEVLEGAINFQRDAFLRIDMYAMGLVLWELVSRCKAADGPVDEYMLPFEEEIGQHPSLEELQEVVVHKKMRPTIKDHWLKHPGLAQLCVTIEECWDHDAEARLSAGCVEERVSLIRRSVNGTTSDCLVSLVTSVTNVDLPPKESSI
Assay [4] addresses T2, Tyrosine-protein kinase JAK3 (Homo sapiens) (UniProt P52333).
T2 sequence (whole entry): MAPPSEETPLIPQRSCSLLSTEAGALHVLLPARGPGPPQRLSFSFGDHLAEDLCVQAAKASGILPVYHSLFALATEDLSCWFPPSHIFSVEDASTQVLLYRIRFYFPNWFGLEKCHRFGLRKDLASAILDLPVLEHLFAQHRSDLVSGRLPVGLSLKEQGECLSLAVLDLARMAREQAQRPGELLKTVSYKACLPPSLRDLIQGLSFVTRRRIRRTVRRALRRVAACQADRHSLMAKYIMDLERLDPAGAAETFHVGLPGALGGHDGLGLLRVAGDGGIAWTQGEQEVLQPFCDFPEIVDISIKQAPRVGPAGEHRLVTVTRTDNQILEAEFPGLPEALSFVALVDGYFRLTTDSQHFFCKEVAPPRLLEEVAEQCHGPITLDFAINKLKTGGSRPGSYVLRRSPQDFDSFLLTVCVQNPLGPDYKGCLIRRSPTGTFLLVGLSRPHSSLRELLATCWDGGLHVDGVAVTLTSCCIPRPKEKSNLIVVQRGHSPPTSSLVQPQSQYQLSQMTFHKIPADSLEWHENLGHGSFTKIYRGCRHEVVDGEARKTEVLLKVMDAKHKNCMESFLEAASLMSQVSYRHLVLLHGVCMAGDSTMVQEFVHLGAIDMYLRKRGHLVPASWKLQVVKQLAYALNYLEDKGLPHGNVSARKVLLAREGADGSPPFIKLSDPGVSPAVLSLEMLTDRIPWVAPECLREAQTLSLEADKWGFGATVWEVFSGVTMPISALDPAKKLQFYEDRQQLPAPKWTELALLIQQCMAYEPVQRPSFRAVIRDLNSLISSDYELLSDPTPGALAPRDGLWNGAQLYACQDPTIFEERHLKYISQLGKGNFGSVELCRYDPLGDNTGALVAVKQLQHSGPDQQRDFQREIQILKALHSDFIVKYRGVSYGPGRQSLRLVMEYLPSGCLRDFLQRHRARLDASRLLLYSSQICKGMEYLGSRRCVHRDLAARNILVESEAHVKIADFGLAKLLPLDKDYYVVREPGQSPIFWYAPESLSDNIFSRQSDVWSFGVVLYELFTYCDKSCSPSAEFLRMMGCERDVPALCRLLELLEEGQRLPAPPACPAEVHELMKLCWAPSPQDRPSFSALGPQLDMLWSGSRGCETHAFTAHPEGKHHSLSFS

In assay [5] the target is Cyclin-dependent kinase 15 (Homo sapiens) (UniProt Q96Q40).
Assay [6] addresses Membrane-associated tyrosine- and threonine-specific cdc2-inhibitory kinase (Homo sapiens) (UniProt Q99640).
Assay [7] concerns the target Focal adhesion kinase 1 (Homo sapiens) (UniProt Q05397).
Assay [8] addresses Dual specificity mitogen-activated protein kinase kinase 4 (Homo sapiens) (UniProt P45985).
The target of assay [9] is Rho-associated protein kinase 2 (Homo sapiens) (UniProt O75116).
Chain of Rho-associated protein kinase 2 (Homo sapiens) (O75116 whole entry, looked up): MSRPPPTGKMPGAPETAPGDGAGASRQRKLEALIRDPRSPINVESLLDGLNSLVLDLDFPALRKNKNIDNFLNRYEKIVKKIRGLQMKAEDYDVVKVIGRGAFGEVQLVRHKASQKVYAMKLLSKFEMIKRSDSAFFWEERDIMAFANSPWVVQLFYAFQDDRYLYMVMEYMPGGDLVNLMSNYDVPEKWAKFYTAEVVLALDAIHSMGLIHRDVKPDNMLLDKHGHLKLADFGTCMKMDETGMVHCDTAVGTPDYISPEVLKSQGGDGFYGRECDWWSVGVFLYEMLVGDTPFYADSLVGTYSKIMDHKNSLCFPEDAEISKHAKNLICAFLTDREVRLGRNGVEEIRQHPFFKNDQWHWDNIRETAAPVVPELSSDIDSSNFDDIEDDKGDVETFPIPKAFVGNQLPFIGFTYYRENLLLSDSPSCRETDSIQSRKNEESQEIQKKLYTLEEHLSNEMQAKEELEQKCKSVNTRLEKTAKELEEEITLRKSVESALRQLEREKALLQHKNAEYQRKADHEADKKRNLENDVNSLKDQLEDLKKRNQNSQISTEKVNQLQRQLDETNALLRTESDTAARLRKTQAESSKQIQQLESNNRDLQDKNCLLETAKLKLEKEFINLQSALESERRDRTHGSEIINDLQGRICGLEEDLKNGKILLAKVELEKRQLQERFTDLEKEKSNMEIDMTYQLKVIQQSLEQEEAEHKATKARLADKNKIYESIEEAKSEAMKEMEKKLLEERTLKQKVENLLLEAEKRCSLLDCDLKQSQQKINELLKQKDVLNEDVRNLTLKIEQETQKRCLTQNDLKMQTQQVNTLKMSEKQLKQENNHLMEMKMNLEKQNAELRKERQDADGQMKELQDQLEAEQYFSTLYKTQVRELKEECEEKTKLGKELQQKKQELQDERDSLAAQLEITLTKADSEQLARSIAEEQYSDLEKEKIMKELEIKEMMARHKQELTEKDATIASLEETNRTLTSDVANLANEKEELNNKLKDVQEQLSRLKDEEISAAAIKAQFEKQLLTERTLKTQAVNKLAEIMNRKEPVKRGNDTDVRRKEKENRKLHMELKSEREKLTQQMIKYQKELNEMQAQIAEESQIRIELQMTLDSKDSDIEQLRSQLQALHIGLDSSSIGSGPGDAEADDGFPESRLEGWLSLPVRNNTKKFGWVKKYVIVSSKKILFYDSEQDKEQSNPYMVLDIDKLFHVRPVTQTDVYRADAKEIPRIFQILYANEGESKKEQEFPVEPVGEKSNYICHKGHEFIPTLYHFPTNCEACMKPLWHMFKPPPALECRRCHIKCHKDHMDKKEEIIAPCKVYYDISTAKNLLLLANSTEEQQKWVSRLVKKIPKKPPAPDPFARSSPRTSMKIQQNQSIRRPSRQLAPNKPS
Assay [10] has as its system Hepatocyte growth factor receptor (Homo sapiens), P08581 [Y1235D].
Assay [11] addresses Macrophage colony-stimulating factor 1 receptor (Homo sapiens) (UniProt P07333).
Assay [12] has as its target Sigma non-opioid intracellular receptor 1 (Homo sapiens, UniProt Q99720). The note with it: Compound concentration 10.0 uM.
The target in assay [13] is T3, Alpha-2A adrenergic receptor (Homo sapiens) (UniProt P08913).
T3 sequence (whole entry): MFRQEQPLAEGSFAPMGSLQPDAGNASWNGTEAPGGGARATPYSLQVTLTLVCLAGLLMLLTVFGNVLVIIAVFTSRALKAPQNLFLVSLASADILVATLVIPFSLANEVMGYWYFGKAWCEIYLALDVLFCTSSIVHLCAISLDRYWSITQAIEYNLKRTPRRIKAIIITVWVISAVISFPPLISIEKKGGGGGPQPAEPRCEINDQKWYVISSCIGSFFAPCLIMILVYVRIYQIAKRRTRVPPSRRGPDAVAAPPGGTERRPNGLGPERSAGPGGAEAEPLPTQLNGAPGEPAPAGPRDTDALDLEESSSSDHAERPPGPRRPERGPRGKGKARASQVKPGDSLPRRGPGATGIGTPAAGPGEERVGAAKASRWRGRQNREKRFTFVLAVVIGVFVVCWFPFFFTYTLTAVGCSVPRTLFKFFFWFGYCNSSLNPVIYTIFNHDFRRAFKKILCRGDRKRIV
The note with it: Compound concentration 10.0 uM.

The target in assay [14] is Serine/threonine-protein kinase ULK3 (Homo sapiens) (UniProt Q6PHR2).
Chain of Serine/threonine-protein kinase ULK3 (Homo sapiens) (Q6PHR2 whole entry): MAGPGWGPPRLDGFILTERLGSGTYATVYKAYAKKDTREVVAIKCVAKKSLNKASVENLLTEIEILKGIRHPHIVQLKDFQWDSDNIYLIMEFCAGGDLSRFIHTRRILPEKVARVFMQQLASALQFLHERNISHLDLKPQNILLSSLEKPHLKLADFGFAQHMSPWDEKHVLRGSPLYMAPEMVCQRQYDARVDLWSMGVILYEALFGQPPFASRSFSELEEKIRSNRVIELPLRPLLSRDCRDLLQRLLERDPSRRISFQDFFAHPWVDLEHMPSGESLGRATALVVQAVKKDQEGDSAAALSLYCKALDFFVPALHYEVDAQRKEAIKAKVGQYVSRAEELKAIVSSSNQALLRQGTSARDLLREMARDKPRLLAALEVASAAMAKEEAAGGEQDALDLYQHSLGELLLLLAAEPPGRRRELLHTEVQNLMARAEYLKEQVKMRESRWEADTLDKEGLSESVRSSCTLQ
Assay [15] concerns the target Death-associated protein kinase 1 (Homo sapiens) (UniProt P53355).
Assay [16] deals with Uncharacterized serine/threonine-protein kinase SBK3 (Homo sapiens) (UniProt P0C264).
Assay [17] deals with Homeodomain-interacting protein kinase 1 (Homo sapiens) (UniProt Q86Z02).
Chain of Homeodomain-interacting protein kinase 1 (Homo sapiens) (Q86Z02 whole entry, looked up): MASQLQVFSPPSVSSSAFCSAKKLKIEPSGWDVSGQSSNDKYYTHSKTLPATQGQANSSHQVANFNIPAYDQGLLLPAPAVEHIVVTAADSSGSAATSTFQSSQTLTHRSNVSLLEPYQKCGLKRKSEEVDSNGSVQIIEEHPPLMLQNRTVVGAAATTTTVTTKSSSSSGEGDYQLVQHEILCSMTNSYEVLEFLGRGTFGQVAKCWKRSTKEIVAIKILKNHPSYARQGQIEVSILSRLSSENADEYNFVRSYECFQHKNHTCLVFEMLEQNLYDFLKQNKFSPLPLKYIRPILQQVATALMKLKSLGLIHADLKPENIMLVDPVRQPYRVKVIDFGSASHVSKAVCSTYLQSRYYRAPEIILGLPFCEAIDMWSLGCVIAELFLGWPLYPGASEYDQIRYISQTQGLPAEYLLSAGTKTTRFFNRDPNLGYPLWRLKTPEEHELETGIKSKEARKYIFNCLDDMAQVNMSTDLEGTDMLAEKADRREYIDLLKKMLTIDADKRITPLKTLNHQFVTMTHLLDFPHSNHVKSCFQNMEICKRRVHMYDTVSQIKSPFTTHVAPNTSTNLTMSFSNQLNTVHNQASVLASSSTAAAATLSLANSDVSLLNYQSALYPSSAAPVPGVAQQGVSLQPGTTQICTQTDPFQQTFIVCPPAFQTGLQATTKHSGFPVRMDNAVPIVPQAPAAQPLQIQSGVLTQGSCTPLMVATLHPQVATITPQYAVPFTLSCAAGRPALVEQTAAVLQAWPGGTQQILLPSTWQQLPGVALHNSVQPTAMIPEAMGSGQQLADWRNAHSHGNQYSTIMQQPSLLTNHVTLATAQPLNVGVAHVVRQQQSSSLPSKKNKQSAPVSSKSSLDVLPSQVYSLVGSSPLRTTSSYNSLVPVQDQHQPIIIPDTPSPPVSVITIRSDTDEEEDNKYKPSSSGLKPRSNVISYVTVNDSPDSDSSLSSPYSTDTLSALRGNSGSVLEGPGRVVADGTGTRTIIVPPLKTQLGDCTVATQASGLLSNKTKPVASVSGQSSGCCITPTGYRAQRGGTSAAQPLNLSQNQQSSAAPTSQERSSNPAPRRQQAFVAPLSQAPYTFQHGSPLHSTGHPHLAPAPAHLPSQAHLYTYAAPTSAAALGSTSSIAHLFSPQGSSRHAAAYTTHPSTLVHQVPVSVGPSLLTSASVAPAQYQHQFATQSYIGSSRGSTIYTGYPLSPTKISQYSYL
[18] abbreviates: Compound concentration 1000.0 nM.
Setting [19] is: Compound concentration 100.0 nM.

Chain of Focal adhesion kinase 1 (Homo sapiens) (Q05397 2-1052 limits assumed): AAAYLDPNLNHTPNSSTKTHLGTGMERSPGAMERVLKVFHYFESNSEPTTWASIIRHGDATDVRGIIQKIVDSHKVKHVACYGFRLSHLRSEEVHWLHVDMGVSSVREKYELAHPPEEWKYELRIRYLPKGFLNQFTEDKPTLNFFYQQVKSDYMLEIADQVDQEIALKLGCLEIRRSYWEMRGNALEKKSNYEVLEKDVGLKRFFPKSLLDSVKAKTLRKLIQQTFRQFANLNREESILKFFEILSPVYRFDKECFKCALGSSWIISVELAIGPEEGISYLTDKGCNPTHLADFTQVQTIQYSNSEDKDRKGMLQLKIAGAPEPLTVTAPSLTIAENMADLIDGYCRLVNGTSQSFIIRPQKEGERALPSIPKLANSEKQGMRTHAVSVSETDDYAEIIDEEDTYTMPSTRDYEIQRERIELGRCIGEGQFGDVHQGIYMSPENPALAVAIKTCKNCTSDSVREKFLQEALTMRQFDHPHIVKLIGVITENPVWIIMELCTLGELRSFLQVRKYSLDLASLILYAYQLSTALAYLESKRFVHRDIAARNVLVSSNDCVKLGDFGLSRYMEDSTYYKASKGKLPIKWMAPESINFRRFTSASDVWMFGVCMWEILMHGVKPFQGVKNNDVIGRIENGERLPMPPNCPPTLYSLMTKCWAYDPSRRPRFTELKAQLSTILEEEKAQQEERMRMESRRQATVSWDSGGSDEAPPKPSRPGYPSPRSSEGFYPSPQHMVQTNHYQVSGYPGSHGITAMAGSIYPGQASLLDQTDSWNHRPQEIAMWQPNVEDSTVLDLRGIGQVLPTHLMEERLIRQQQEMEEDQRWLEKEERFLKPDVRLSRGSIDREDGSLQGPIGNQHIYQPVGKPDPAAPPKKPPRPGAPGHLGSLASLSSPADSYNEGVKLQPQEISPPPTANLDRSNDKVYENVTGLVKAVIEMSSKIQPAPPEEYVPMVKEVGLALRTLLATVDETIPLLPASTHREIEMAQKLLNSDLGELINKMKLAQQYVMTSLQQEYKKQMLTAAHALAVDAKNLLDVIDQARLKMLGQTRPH
Chain of Cyclin-dependent kinase 3 (Homo sapiens) (Q00526 whole entry, looked up): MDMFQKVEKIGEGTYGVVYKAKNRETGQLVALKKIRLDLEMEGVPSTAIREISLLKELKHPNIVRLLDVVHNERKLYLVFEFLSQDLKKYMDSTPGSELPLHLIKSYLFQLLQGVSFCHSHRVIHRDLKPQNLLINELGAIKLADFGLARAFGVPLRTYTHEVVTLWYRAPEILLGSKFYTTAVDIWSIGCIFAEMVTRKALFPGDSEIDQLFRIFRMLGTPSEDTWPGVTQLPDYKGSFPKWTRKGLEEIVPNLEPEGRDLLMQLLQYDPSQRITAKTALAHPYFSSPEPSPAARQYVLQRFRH

The inhibition is the drop in the measured response relative to a control, in per cent. With `C[C@@H]1CN(c2cc(-c3nn(C)c4ccc(OC5(C)CC5)cc34)ncn2)C[C@H](C)O1` [MLi-2-NC], the residual activity was 98% in assay [1] (setting [18]); 98% in assay [3] (setting [18]); 12% in assay [4] (setting [18]); 84% in [5] (setting [18]); 100% in assay [6] (setting [18]); 95% in assay [7] (setting [18]). Besides, the residual activity in assay [8] (setting [18]) was 82%; in assay [9] (setting [18]), 97%; in [10] (setting [18]), 87%; in [11] (setting [18]) it was 100%; in [14] (setting [18]), 67%; in assay [15] (setting [18]), 100%. Also, the residual activity was 100% in [16] (setting [18]) and 85% in assay [17] (setting [18]). For the same compound, the inhibition in assay [2] is -3.11%; in assay [12], 58.2%; in assay [13] it was 12.9%.
As to `C[C@@H]1CN(c2cc(-c3n[nH]c4ccc(OC5(C)CC5)cc34)ncn2)C[C@H](C)O1` [MLi-2], the residual activity was 76% in [1] (setting [19]); 99% in assay [3] (setting [19]); 0% in [4] (setting [19]); 100% in assay [5] (setting [19]); 96% in assay [6] (setting [19]); 81% in assay [7] (setting [19]). Moreover, the residual activity is 73% in assay [8] (setting [19]); 89% in assay [9] (setting [19]); 92% in assay [10] (setting [19]); 91% in assay [11] (setting [19]); 78% in assay [14] (setting [19]); 93% in [15] (setting [19]). For the same compound, the residual activity in assay [16] (setting [19]) was 100%; in assay [17] (setting [19]), 69%. In addition, the inhibition in [2] was 4.35%; in assay [12], 35.9%; in assay [13], -2.84%.
